The record followed here is patent US5763441A, “Compounds for the treatment of disorders related to vasculogenesis and/or angiogenesis” (Sugen, Inc., priority 1995, dated 1998).

One assay deals with Calu-6. The experiment in a line: Tumor xenograft growth inhibition, Calu-6 (lung). Type of assay: in vivo, human. An excerpt: The ability of one of the compounds of the present invention, leflunomide (Compound 40), to inhibit ovarian, melanoma, prostate, lung and mammary tumor cell lines established as SC xenografts was examined. […]
The tumor cells were implanted subcutaneously into the indicated strains of mice. Treatment was initiated on day 1 post implantation unless otherwise indicated (e.g. treatment of the SCID mouse related to the A375 melanoma cell line began on Day 9). Eight (8) to ten (10) mice comprised each test group.
Animals. Female athymic mice (BALB/c, nu/nu), BALB/c mice, Wistar rats and Fisher 344 rats were obtained from Simonsen Laboratories (Gilroy, Calif.). Female A/I mice were obtained from Jackson Laboratory (Bar Harbor, Me.). DA rats were obtained from B&K Universal, Inc. (Fremont, Calif.). Athymic R/Nu rats, DBA/2N mice, and BALB/c mice were obtained from Harlan Sprague Dawley (Indianapolis, Ind.). Female C57BL/6 mice were obtained from Taconic (Germantown, N.Y.). All animals were maintained under clean-room conditions in Micro-isolator cages with Alpha-dri bedding. They received sterile rodent chow and water ad libitum.
Subcutaneous Xenograft Model. Cell lines were grown in appropriate medium as described (See Section 6). Cells were harvested at or near confluency with 0.05% Trypsin-EDTA and pelleted at 450×g for 10 min. Pellets were resuspended in sterile PBS or media (without FBS) to a suitable concentration indicated in the Figure legends and the cells were implanted into the hindflank of mice. Tumor growth was measured over 3 to 6 weeks using venier calipers tumor volumes were calculated as a product of length x width x height unless otherwise indicated. P values were calculated using the Students' t-test. su101 in 50-100 uL excipient (dimethylsulfoxide, PBTE, PBTE6C:D5W, or PBTE:D5W) was delivered by IP injection at concentrations indicated in the Figure legends.
On the technique in general: Xenograft models place foreign cells or tissue in a host animal.

The target of a further assay is T1, FLK-1 receptor (Mus musculus, UniProt P35918).
T1 construct: expressed in transfected cells; host or cells: NIH3T3C7#3 cells (FLK-1 infected NIH3T3)
The experiment in a line: ELISA assay to measure kinase activity of FLK-1 receptor in FLK-1/NIH cells. Type of assay: cell-based, murine. The method, then: ELISA Assay To Measure Kinase Activity Of FLK-1 Receptor In FLK-1/NIH Cells
An ELISA assay was conducted to measure the kinase activity of the FLK-1 receptor and more specifically, the inhibition or activiation of protein tyrosine kinase activity on the FLK-1 receptor.
k. NIH3T3C7#3 Cells (FLK-1 infected cells);
Protocol. The following protocol was used to conduct the ELISA Assay:
1. Coat Corning 96-well elisa plates with 1.0 ug per well Cappel Anti-rabbit IgG antibody in 0.1M Na2CO3 pH 9.6. Bring final volume to 150 ul per well. Coat plates overnight at 4° C. Plates can be kept up to two weeks when stored at 4° C.
2. Grow cells in 30 ml of Growth media 9DMEM. 2.0 mM L-Glutamine, 10% FBS) until confluent in 150 cm tissue culture dishes at 37° C., 5% CO2.
3. Harvest cells by tyrpsination and seed in Corning 25850 polystyrene 96-well roundbottom cell plates, 25.000 cells/well in 200 uL of growth media.
4. Grow cells at least one day at 37° C., 5% CO2.
5. Wash cells with D-PBS 1X.
6. Add 200 ul/well of starvation media (DMEM, 2.0 mM l-Glutamine, 0.1% FBS). Incubate overnight at 37° C., 5% CO2.
7. Dilute Compounds/Extracts 1:20 in polyproplyene 96 well plates using starvation media. Dilute dimethylsulfoxide 1:20 for use in control wells.
8. Remove starvation media from 96 well cell culture plates and add 162 ul of fresh starvation media to each well.
9. Add 18 ul of 1:20 diluted Compound/Extract dilution (from step #7) to each well plus the 1:20 dimethylsulfoxide dilution to the control wells (+/-VEGF), for a final dilution of 1:200 after cell stimulation. Final dimethylsulfoxide is 0.5%. Incubate the plate at 37° C., 5% CO2 for two hours.
10. Remove unbound antibody from Elisa plates by inverting plate to remove liquid. Wash 3 times with TBSW+0.5% Ethanolamine, pH 7.0. Pat the plate on a paper towel to remove excess liquid and bubbles.
11. Block plates with TBSW+0.5% Ethanolamine, pH 7.0. 150 ul per well. Incubate plate thirty minutes while shaking on a microtiter plate shaker.
12. Wash plate 3 times as described in step 10.
13. Add 0.5 ug/well affinity purified anti-flk-1 polyclonal rabbit antiserum. Bring final volume to 150 ul/well with TBSW+0.5k Ethanolamine pH 7.0. Incubate plate for thirty minutes while shaking.
14. Add 180 μl starvation medium to the cells and stimulate cells with 20 ul/well 10.0 mM Sodium Ortho Vanadate and 500 ng/ml VEGF (resulting in a final concentration of 1.0 mM Sodium Ortho Vanadate and 50 ng/ml VEGF per well) for eight minutes at 37° C., 5% CO2. Negative control wells receive only starvation medium.
15. After eight minutes, media are removed from the cells and washed one time with 200 ul/well PBS.
16. Lyse cells in 150 ul/well HNTG while shaking at room temperature for five minutes. HNTG formulation includes sodium ortho vanadate, sodium pyro phosphate and EDTA.
17. Wash Elisa plate three times as described in step 10.
18. Transfer cell lysates from the cell plate to elisa plate and incubate while shaking for two hours. To transfer cell lysate pipette up and down while scrapping the wells.
19. Wash plate three times as described in step 10.
20. Incubate Elisa plate with 0.02 ug/well UB40 in TBSW+05% ethanolamine. Bring final volume to 150 ul/well. Incubate while shaking for 30 minutes.
21. Wash plate three times as described in step 10.
22. Incubate elisa plate with 1:10,000 diluted EIA grade Goat anti-mouse IgG conjugated horseradish peroxidase in TBSW+0.5% ethanolamine, pH 7.0. Bring final volume to 150 ul/well. Incubate while shaking for thirty minutes.
23. Wash plate as described in step 10.
24. Add 100 ul of ABTS/H202 solution to well. Incubate ten minutes while shaking.
25. Add 100 ul of 0.2M HCL for 0.1M HCL final to stop the colordevelopment reaction. Shake 1 minute at room temperature. Remove bubbles with slow stream of air and read the ELISA plate in an ELISA plate reader at 410 nm.
A general note: An ELISA detects its analyte on a solid surface through an enzyme-linked reagent.

Where [1] appears, read: FLK-1R ELISA, VEGF-stimulated FLK-1/NIH cells.

Usually pIC50 stands for −log10 of the IC50, conventionally taken in molar units.

pIC50: −log10 of the molar value. Where two headings read alike, the source gives them in different places.

T1 sequence (P35918 20-1345): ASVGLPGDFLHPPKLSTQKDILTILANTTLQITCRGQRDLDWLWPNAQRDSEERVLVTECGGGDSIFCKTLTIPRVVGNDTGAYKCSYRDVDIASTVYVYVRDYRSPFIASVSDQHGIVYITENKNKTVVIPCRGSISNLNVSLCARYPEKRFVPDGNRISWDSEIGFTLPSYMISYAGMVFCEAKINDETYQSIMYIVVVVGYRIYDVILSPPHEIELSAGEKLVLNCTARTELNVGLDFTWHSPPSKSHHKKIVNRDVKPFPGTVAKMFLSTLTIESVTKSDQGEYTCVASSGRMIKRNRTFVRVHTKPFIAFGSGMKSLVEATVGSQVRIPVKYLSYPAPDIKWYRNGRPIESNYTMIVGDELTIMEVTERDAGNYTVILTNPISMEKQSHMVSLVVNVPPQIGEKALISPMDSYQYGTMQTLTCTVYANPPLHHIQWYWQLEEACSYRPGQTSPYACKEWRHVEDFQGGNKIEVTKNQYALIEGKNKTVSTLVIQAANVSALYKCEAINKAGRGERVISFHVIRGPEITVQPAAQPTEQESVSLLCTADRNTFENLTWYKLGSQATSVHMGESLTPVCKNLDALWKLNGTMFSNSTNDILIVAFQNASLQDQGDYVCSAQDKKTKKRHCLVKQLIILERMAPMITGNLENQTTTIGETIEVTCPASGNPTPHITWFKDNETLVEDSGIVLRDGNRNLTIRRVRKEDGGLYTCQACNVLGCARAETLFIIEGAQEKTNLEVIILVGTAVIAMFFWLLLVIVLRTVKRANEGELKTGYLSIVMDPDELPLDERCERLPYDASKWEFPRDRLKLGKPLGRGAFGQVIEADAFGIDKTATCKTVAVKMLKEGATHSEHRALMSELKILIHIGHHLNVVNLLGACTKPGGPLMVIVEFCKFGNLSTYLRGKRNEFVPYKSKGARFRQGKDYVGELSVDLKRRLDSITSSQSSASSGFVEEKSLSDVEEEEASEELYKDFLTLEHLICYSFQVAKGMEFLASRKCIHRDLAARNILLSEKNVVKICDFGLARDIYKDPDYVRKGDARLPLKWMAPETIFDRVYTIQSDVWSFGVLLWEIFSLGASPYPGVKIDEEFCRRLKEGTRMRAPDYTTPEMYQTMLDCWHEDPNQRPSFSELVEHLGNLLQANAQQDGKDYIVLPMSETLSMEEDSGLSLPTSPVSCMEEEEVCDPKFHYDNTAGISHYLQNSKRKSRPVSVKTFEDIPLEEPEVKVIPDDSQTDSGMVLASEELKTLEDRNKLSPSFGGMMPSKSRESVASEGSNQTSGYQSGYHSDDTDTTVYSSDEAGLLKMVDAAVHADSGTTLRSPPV

Take `N#C/C(=C\c1cc(O)c(O)c(Br)c1)S(=O)(=O)/C(C#N)=C/c1cc(O)c(O)c(Br)c1` [Compound 12, (E)-2-[1-cyano-2-(5-bromo-3,4-dihydroxyphenyl)ethenylsulfonyl]-3-(3-bromo-4,5-dihydroxyphenyl)acrylonitrile]: the “inhibition, CALU-6 (in words)” value in the assay with Calu-6 (20 mg/kg/day) was “no detectable inhibition”. The compound also showed a pIC50 on FLK-1 receptor of 5.15.
Consider `CC(C)(C)c1cc(/C=C(\C#N)C(N)=S)cc(C(C)(C)C)c1O` [Compound 1, (E)-2-aminothiocarbonyl-3 (3,5-di-t-butyl-4-hydroxyphenyl)acrylonitrile], for which the pIC50 on FLK-1 receptor (FLK-1R ELISA, VEGF-stimulated FLK-1/NIH cells, read-out: IC50) was 6.10.
On to `N#C/C(=C\c1cc(O)c(O)c(I)c1)C(=O)NCc1ccccc1` [Compound 6, (E)-2-(benzylaminocarbonyl)-3-(3-iodo-4,5-dihydroxyphenyl)acrylonitrile], for which the pIC50 against FLK-1 receptor is 4.67.
On FLK-1 receptor, `Oc1cccc(Nc2ncnc3ccccc23)c1` [Compound 18, 4-(3-hydroxyphenylamino)-quinazoline] showed a pIC50 of 4.46.
In turn, `COc1cc2nc(Cl)nc(Nc3cccc(Cl)c3)c2cc1OC` [Compound 21, 2-chloro-4-(3-chlorophenylamino)-6,7-dimethoxyquinazoline] had a negative-log IC50 (pIC50) at FLK-1 receptor of 5.00.
On the same count and under the same terms, in the case of `N#CCS(=O)(=O)/C(C#N)=C/c1cc(O)c(O)c(Br)c1` [Compound 26, (E)-2-cyanomethylsufonyl-3-(3-bromo-4,5-dihydroxyphenyl)acrylonitrile] it was 4.96; in that of `N#CC(C#N)=NNc1cccc(Cl)c1` [Compound 22], 5.64; in that of `Cc1ccc(Sc2ncnc3ccc(C)cc23)cc1` [Compound 20], 4.75.
As to `CC(C)c1cc(/C=C(\C#N)C(=S)NCCCc2ccccc2)cc(C(C)C)c1O` [Compound 11, (E)-2-[3-phenyl-n-propylaminothiocarbonyl]-3-(3,5-diisopropyl-4-hydroxyphenyl)acrylonitrile], the pIC50 against FLK-1 receptor was 5.01.
On to `CC(C)(C)c1cc(/C=C(/C#N)c2[nH]nc(N)c2C#N)cc(C(C)(C)C)c1O` [Compound 4, (E)-2-[(3-amino-4-cyano)pyrazo-5-yl]-3-(3,5-di-t-butyl-4-hydroxyphenyl)acrylonitrile], for which the “inhibition, CALU-6 (in words)” value with Calu-6 (20 mg/kg/day) was “no significant inhibition”. Besides, at FLK-1 receptor, the pIC50 was 5.05.
Compound `CC1c2nc3ccccc3c(=O)n2C(c2ccc(O)cc2)N1Cc1ccccc1` (stereo not drawn) [Compound 27] gave a pIC50 on FLK-1 receptor of 5.47.
For the compound `CCCNc1nc2ccccc2nc1Cl` [Compound 19, 2-(n-propylamino)-3-chloroquinoxaline], the pIC50 against FLK-1 receptor is 4.59.
Take `N#C/C(=C\c1ccc(O)c(O)c1)S(=O)(=O)/C(C#N)=C/c1ccc(O)c(O)c1` [Compound 9]: the pIC50 against FLK-1 receptor (setting [1]) is 4.56.
Regarding `Cc1cc2ncc(-c3ccc(O)c(O)c3)nc2cc1C` [Compound 14, 2-(3,4-dihydroxyphenyl) -6,7-dimethylquinoxaline], the pIC50 against FLK-1 receptor is 5.03.
Same read-out and setting: in the case of `COC(=O)c1ccc(NCc2cc(O)ccc2O)cc1` [Compound 24, N-(2,5-dihydroxylbenzyl)-4-methoxycarbonylaniline] it was 4.54; in that of `Cc1ccc2ncnc(Nc3cccc(O)c3)c2c1` [Compound 16, 4-(3-hydroxyphenylamino)-6-methylquinazoline], 4.45; in that of `Cc1cc2ncc(Nc3ccc(I)cc3)nc2cc1C` [Compound 13, 2-[(4-iodophenyl)amino]-6,7-dimethyl quinoxaline], 4.98.
On FLK-1 receptor (setting [1]), `N#C/C(=C\c1ccc(O)c(O)c1)C(=O)NCCNC(=O)/C(C#N)=C/c1ccc(O)c(O)c1` [Compound 7] had a pIC50 of 4.43.
`N#C/C(=C\c1cc(O)c(O)c(I)c1)C(=O)NCCCc1ccccc1` [Compound 3] had a pIC50 against FLK-1 receptor (setting [1]) of 5.31.
In turn, `N#C/C(=C\c1ccc2[nH]ccc2c1)C(=O)c1ccc(O)c(O)c1` [Compound 10, (E)-3-(indol-5-yl)-2-(3,4-dihydroxyphenylcarbonyl)acrylonitrile] gave a pIC50 at FLK-1 receptor of 4.75.
As to `N#CC(C#N)=Cc1cc(O)c(O)c(I)c1` [Compound 2, (E)-2-cyano-3-(3-iodo-4,5-hydroxyphenyl)acrylonitrile], the “inhibition, CALU-6 (in words)” value in the assay on Calu-6 (20 mg/kg/day) and with Calu-6 (40 mg/kg/day) was “no detectable inhibition” each time.
The compound `N#C/C(=C\c1ccc(O)c(O)c1)C(=O)NCCCCNC(=O)/C(C#N)=C/c1ccc(O)c(O)c1` [Compound 8, (E,E)-2-[[4-[[1-cyano-2-(3,4-dihydroxyphenyl)ethenyl]carbonylamino]-n-butyl]aminocarbonyl]-3-(3,4-dihydroxyphenyl)acrylonitrile] showed a negative logarithm of the IC50 (pIC50) against FLK-1 receptor of 4.97.
Turning to `c1ccc(-c2cnc3cc4ccccc4cc3n2)cc1` [Compound 23, 2-phenyl-1,4-diaza-anthracene], the “inhibition, CALU-6” value in the assay on Calu-6 (20 mg/kg/day) came to 41%. Further, the pIC50 against FLK-1 receptor was 5.36.
For the compound `Cc1cc2ncc(Nc3cccc(Cl)c3)nc2cc1C` [Compound 28, 2-(3-chlorophenylamino)-6,7-dimethylquinoxaline], at FLK-1 receptor, the pIC50 was 4.80.
Same read-out and setting: in the case of `N#CC(C(=O)Nc1cccc(C(F)(F)F)c1)C(=S)Nc1ccccc1Cl` (stereo not drawn) [Compound 25, N-(2-chlorophenyl)-2-cyano-2-(N-3-trifluorophenylamino-carbonyl)-thioacetamide] it was 5.07.
On the same count and under the same terms, the result for `Cc1cc2ncc(Nc3ccc(Cl)c(Cl)c3)nc2cc1C` [Compound 17, 2-(3,4-dichlorophenylamino)-6,7-dimethylquinoxaline] reads 4.82.
